# Source: patent USRE30451E, “Novel process for producing antibiotics bleomycin” (priority 1969, dated 1980)
# Tested on: Ehrlich ascites carcinoma cells
# Details: maximum dose level at which mice survive 100 to 200 percent of control survival days; intraperitoneally once a day for 10 days, doses 25 mg/kg to 0.19 mg/kg
row,SMILES,ED50
1,"Cc1c(N)nc(C(CC(N)=O)NCC(N)C(N)=O)nc1C(=O)NC(C(=O)NC(C)C(O)C(C)C(=O)NC(C(=O)NCCc1nc(-c2nc(C(=O)NCCC[N+](C)(C)C)cs2)cs1)C(C)O)C(OC1OC(CO)C(O)C(O)C1OC1OC(CO)C(O)C(OC(N)=O)C1O)c1cnc[nH]1 (stereo not drawn) [Compound 20, 3-(N,N,N-trimethyl)-aminopropylamino-bleomycin]",0.19
2,"Cc1c(N)nc(C(CC(N)=O)NCC(N)C(N)=O)nc1C(=O)NC(C(=O)NC(C)C(O)C(C)C(=O)NC(C(=O)NCCc1nc(-c2nc(C(=O)NCCCN(C)C)cs2)cs1)C(C)O)C(OC1OC(CO)C(O)C(O)C1OC1OC(CO)C(O)C(OC(N)=O)C1O)c1cnc[nH]1 (stereo not drawn) [Compound 19, 3-(N,N-dimethyl)-aminopropylamino-bleomycin]",0.39
3,"CCCCNCCCNCCCNC(=O)c1csc(-c2csc(CCNC(=O)C(NC(=O)C(C)C(O)C(C)NC(=O)C(NC(=O)c3nc(C(CC(N)=O)NCC(N)C(N)=O)nc(N)c3C)C(OC3OC(CO)C(O)C(O)C3OC3OC(CO)C(O)C(OC(N)=O)C3O)c3cnc[nH]3)C(C)O)n2)n1 (stereo not drawn) [Compound 12, 3-(3-N-butyl-aminopropyl)-aminopropylamino-bleomycin]",0.19
4,"Cc1c(N)nc(C(CC(N)=O)NCC(N)C(N)=O)nc1C(=O)NC(C(=O)NC(C)C(O)C(C)C(=O)NC(C(=O)NCCc1nc(-c2nc(C(=O)NCCCN3CCNCC3)cs2)cs1)C(C)O)C(OC1OC(CO)C(O)C(O)C1OC1OC(CO)C(O)C(OC(N)=O)C1O)c1cnc[nH]1 (stereo not drawn) [Compound 14, 3-(piperazino)propylamino-bleomycin]",0.39
5,"Cc1c(N)nc(C(CC(N)=O)NCC(N)C(N)=O)nc1C(=O)NC(C(=O)NC(C)C(O)C(C)C(=O)NC(C(=O)NCCc1nc(-c2nc(C(=O)NCCc3cnc[nH]3)cs2)cs1)C(C)O)C(OC1OC(CO)C(O)C(O)C1OC1OC(CO)C(O)C(OC(N)=O)C1O)c1cnc[nH]1 (stereo not drawn) [Compound 42, 2-(4-imidazolyl)-ethylamino-bleomycin]",0.78
6,"Cc1c(N)nc(C(CC(N)=O)NCC(N)C(N)=O)nc1C(=O)NC(C(=O)NC(C)C(O)C(C)C(=O)NC(C(=O)NCCc1nc(-c2nc(C(=O)NCCCNCCCO)cs2)cs1)C(C)O)C(OC1OC(CO)C(O)C(O)C1OC1OC(CO)C(O)C(OC(N)=O)C1O)c1cnc[nH]1 (stereo not drawn) [Compound 32, 3-(3-hydroxypropyl)-aminopropylamino-bleomycin]",0.19
7,"Cc1c(N)nc(C(CC(N)=O)NCC(N)C(N)=O)nc1C(=O)NC(C(=O)NC(C)C(O)C(C)C(=O)NC(C(=O)NCCc1nc(-c2nc(C(=O)NCCCN3CCOCC3)cs2)cs1)C(C)O)C(OC1OC(CO)C(O)C(O)C1OC1OC(CO)C(O)C(OC(N)=O)C1O)c1cnc[nH]1 (stereo not drawn) [Compound 26, 3-(morpholino)-propylamoni-bleomycin]",0.78
8,"Cc1c(N)nc(C(CC(N)=O)NCC(N)C(N)=O)nc1C(=O)NC(C(=O)NC(C)C(O)C(C)C(=O)NC(C(=O)NCCc1nc(-c2nc(C(=O)NCCCN3CCCC3)cs2)cs1)C(C)O)C(OC1OC(CO)C(O)C(O)C1OC1OC(CO)C(O)C(OC(N)=O)C1O)c1cnc[nH]1 (stereo not drawn) [Compound 24, 3-(pyrrolidino)-propylamino-bleomycin]",0.39
9,"Cc1c(N)nc(C(CC(N)=O)NCC(N)C(N)=O)nc1C(=O)NC(C(=O)NC(C)C(O)C(C)C(=O)NC(C(=O)NCCc1nc(-c2nc(C(=O)NCCCNC3CCCCC3)cs2)cs1)C(C)O)C(OC1OC(CO)C(O)C(O)C1OC1OC(CO)C(O)C(OC(N)=O)C1O)c1cnc[nH]1 (stereo not drawn) [Compound 38, 3-cyclohexylaminopropylamino-bleomycin]",0.39
10,"Cc1c(N)nc(C(CC(N)=O)NCC(N)C(N)=O)nc1C(=O)NC(C(=O)NC(C)C(O)C(C)C(=O)NC(C(=O)NCCc1nc(-c2nc(C(=O)NCCCN(C)CCCN)cs2)cs1)C(C)O)C(OC1OC(CO)C(O)C(O)C1OC1OC(CO)C(O)C(OC(N)=O)C1O)c1cnc[nH]1 (stereo not drawn) [Compound 22, 3-[N-methyl-N-(3-aminopropyl)]-aminopropylamino-bleomycin]",0.19
11,"Cc1c(N)nc(C(CC(N)=O)NCC(N)C(N)=O)nc1C(=O)NC(C(=O)NC(C)C(O)C(C)C(=O)NC(C(=O)NCCc1nc(-c2nc(C(=O)NCCCNCCCNC3CCCCC3)cs2)cs1)C(C)O)C(OC1OC(CO)C(O)C(O)C1OC1OC(CO)C(O)C(OC(N)=O)C1O)c1cnc[nH]1 (stereo not drawn) [Compound 39, 3-(3-cyclohexylaminopropyl)-aminopropylamino bleomycin]",0.19
12,"CCN(CC)CCCNC(=O)c1csc(-c2csc(CCNC(=O)C(NC(=O)C(C)C(O)C(C)NC(=O)C(NC(=O)c3nc(C(CC(N)=O)NCC(N)C(N)=O)nc(N)c3C)C(OC3OC(CO)C(O)C(O)C3OC3OC(CO)C(O)C(OC(N)=O)C3O)c3cnc[nH]3)C(C)O)n2)n1 (stereo not drawn) [Compound 11, 3,-N,N-diethylaminopropylamino-bleomycin]",0.19
13,"Cc1c(N)nc(C(CC(N)=O)NCC(N)C(N)=O)nc1C(=O)NC(C(=O)NC(C)C(O)C(C)C(=O)NC(C(=O)NCCc1nc(-c2nc(C(=O)NCCCNCCCN3CCOCC3)cs2)cs1)C(C)O)C(OC1OC(CO)C(O)C(O)C1OC1OC(CO)C(O)C(OC(N)=O)C1O)c1cnc[nH]1 (stereo not drawn) [Compound 31, 3-(3-morpholinopropyl)-aminopropylamino-bleomycin]",0.19
14,"Cc1c(N)nc(C(CC(N)=O)NCC(N)C(N)=O)nc1C(=O)NC(C(=O)NC(C)C(O)C(C)C(=O)NC(C(=O)NCCc1nc(-c2nc(C(=O)NCCCN3CCN(CCCN)CC3)cs2)cs1)C(C)O)C(OC1OC(CO)C(O)C(O)C1OC1OC(CO)C(O)C(OC(N)=O)C1O)c1cnc[nH]1 (stereo not drawn) [Compound 28, 3-[1-{4-(3-aminopropyl)}-piperazino]propylamino-bleomycin]",0.19
15,"Cc1c(N)nc([C@H](CC(N)=O)NC[C@H](N)C(N)=O)nc1C(=O)N[C@H](C(=O)N[C@H](C)[C@@H](O)[C@H](C)C(=O)N[C@H](C(=O)NCCc1nc(-c2nc(C(=O)NCCC[S+](C)C)cs2)cs1)[C@@H](C)O)[C@@H](O[C@@H]1O[C@@H](CO)[C@@H](O)[C@H](O)[C@@H]1O[C@H]1O[C@H](CO)[C@@H](O)[C@H](OC(N)=O)[C@@H]1O)c1c[nH]cn1.[Br-] [Compound 1, Bleomycin A2, reference compound]",0.78
16,"Cc1c(N)nc(C(CC(N)=O)NCC(N)C(N)=O)nc1C(=O)NC(C(=O)NC(C)C(O)C(C)C(=O)NC(C(=O)NCCc1nc(-c2nc(C(=O)NCCN(C)C)cs2)cs1)C(C)O)C(OC1OC(CO)C(O)C(O)C1OC1OC(CO)C(O)C(OC(N)=O)C1O)c1cnc[nH]1 (stereo not drawn) [Compound 9, 3-N,N-dimethylaminoethylamino-bleomycin]",0.39
17,"Cc1c(N)nc(C(CC(N)=O)NCC(N)C(N)=O)nc1C(=O)NC(C(=O)NC(C)C(O)C(C)C(=O)NC(C(=O)NCCc1nc(-c2nc(C(=O)NCCNCC(C)O)cs2)cs1)C(C)O)C(OC1OC(CO)C(O)C(O)C1OC1OC(CO)C(O)C(OC(N)=O)C1O)c1cnc[nH]1 (stereo not drawn) [Compound 13, 2-(2-hydroxypropyl)-aminoethylamino-bleomycin]",0.39
18,"Cc1c(N)nc(C(CC(N)=O)NCC(N)C(N)=O)nc1C(=O)NC(C(=O)NC(C)C(O)C(C)C(=O)NC(C(=O)NCCc1nc(-c2nc(C(=O)NCCCNCCCN3CCCCC3)cs2)cs1)C(C)O)C(OC1OC(CO)C(O)C(O)C1OC1OC(CO)C(O)C(OC(N)=O)C1O)c1cnc[nH]1 (stereo not drawn) [Compound 30, 3-(3-piperidinopropyl)-aminopropylamino-bleomycin]",0.39
